# According to US9695155B2, “Herbicidal substituted pyrimidinyloxy benzene compounds” (E. I. DU PONT DE NEMOURS AND COMPANY, priority 2013, dated 2017):
# What was measured:
# barnyardgrass [1] = assay: Test A preemergence; format: in vivo, Echinochloa crus-galli; details: for Barnyardgrass plant response rating: 500 g ai/ha
# Outline: (§1)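 Compounds in non-phytotoxic solvent with surfactant applied as soil spray preemergence, or postemergence to plants 2-10 cm at one- to two-leaf stage, in loam/sand. After approximately 10 days in greenhouse, injury rated visually versus untreated controls, 0 (no effect) to 100 (complete control).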
# large (Lg) crabgrass [2] = assay: Test A preemergence; format: in vivo, Digitaria sanguinalis; details: for Crabgrass, Large plant response rating: 500 g ai/ha
# Outline: as §1
# corn [3] = assay: Test A postemergence; format: in vivo, Zea mays
# Outline: as §1
# morningglory [4] = assay: Test A postemergence; format: in vivo, Ipomoea spp.
# Outline: as §1
# wheat [5] = assay: Test A postemergence; format: in vivo, Triticum aestivum
# Outline: as §1
# velvetleaf [6] = assay: Test A preemergence; format: in vivo, Abutilon theophrasti; details: for Velvetleaf plant response rating: 500 g ai/ha
# Outline: as §1
# sedge, umbrella = assay: Test B flooded paddy test; format: in vivo, Cyperus difformis; details: Flood, 250 g ai/ha; 0 to 100 scale where 0 is no effect and 100 is complete control
# Outline: (§2)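 Compound added straight to paddy water, with pots kept flooded 3 cm above soil, on plants grown to the 2-leaf stage. Visual scoring 0-100 (100 = complete control) against untreated controls after 13 to 15 greenhouse days.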
# barnyardgrass [7] = assay: Test A postemergence; format: in vivo, Echinochloa crus-galli
# Outline: as §1
# wheat [8] = assay: Test A preemergence; format: in vivo, Triticum aestivum; details: for Wheat plant response rating: 500 g ai/ha
# Outline: as §1
# Heteranthera limosa = assay: Test B flooded paddy test; format: in vivo; details: Flood, 250 g ai/ha; 0 to 100 scale where 0 is no effect and 100 is complete control
# Outline: as §2
# velvetleaf [9] = assay: Test A postemergence; format: in vivo, Abutilon theophrasti
# Outline: as §1
# pigweed [10] = assay: Test A preemergence; format: in vivo, Amaranthus retroflexus; details: for Pigweed plant response rating: 500 g ai/ha
# Outline: as §1
# giant foxtail [11] = assay: Test A preemergence; format: in vivo, Setaria faberii; details: for Foxtail, Giant plant response rating: 500 g ai/ha
# Outline: as §1
# barnyardgrass [12] = assay: Test B flooded paddy test; format: in vivo, Echinochloa crus-galli; details: Flood, 250 g ai/ha; 0 to 100 scale where 0 is no effect and 100 is complete control
# Outline: as §2
# pigweed [13] = assay: Test A postemergence; format: in vivo, Amaranthus retroflexus
# Outline: as §1
# morningglory [14] = assay: Test A preemergence; format: in vivo, Ipomoea spp.; details: for Morningglory plant response rating: 500 g ai/ha
# Outline: as §1
# large (Lg) crabgrass [15] = assay: Test A postemergence; format: in vivo, Digitaria sanguinalis
# Outline: as §1
# rice = assay: Test B flooded paddy test; format: in vivo, Oryza sativa; details: Flood, 250 g ai/ha; 0 to 100 scale where 0 is no effect and 100 is complete control
# Outline: as §2
# giant foxtail [16] = assay: Test A postemergence; format: in vivo, Setaria faberii
# Outline: as §1
# corn [17] = assay: Test A preemergence; format: in vivo, Zea mays; details: for Corn plant response rating: 500 g ai/ha
# Outline: as §1
# [18] = 0 to 100 scale where 0 is no effect and 100 is complete control
# [19] = 125 g ai/ha, 0 to 100 scale where 0 is no effect and 100 is complete control
# [20] = 500 g ai/ha, 0 to 100 scale where 0 is no effect and 100 is complete control
# [21] = 0 to 100 scale, 0 no effect, 100 complete control, approx. 10 days
# [22] = 500 g ai/ha, 0 to 100 scale, 0 no effect, 100 complete control
structure (smiles),measurement,setting,value
FC(F)c1cccc(Oc2ncc(Cl)cn2)c1-n1cc(Cl)cn1 [Compound 209],"Barnyardgrass plant response rating (0 to 100 scale, 0 is no effect, 100 is complete control)",barnyardgrass [1]; 125 g ai/ha,60
same,Barnyardgrass plant response rating,barnyardgrass [1]; [18],100
same,"Crabgrass, Large plant response rating (0 to 100 scale)",large (Lg) crabgrass [2]; 125 g ai/ha,100
same,"Crabgrass, Large plant response rating",large (Lg) crabgrass [2]; [18],100
same,Corn plant response rating,corn [3]; [19],30
same,"Plant response rating, Corn",corn [3]; [20],70
same,Morningglory plant response rating,morningglory [4]; [19],50
same,"Plant response rating, Morningglory",morningglory [4]; [20],90
same,Wheat plant response rating,wheat [5]; [19],0
same,"Plant response rating, Wheat",wheat [5]; [20],70
same,Velvetleaf plant response rating (0 to 100 scale),velvetleaf [6]; 125 g ai/ha,90
same,Velvetleaf plant response rating,velvetleaf [6]; [18],90
same,"Plant response rating, Sedge, Umbrella","sedge, umbrella",60
same,Barnyardgrass plant response rating,barnyardgrass [7]; [19],40
same,"Plant response rating, Barnyardgrass",barnyardgrass [7]; [20],100
same,Wheat plant response rating (0 to 100 scale),wheat [8]; 125 g ai/ha,0
same,Wheat plant response rating,wheat [8]; [18],20
same,"Plant response rating, Ducksalad",Heteranthera limosa,75
same,Velvetleaf plant response rating,velvetleaf [9]; [19],100
same,"Plant response rating, Velvetleaf",velvetleaf [9]; [20],100
same,Pigweed plant response rating (0 to 100 scale),pigweed [10]; 125 g ai/ha,100
same,Pigweed plant response rating,pigweed [10]; [18],100
same,"Foxtail, Giant plant response rating (0 to 100 scale)",giant foxtail [11]; 125 g ai/ha,100
same,"Foxtail, Giant plant response rating",giant foxtail [11]; [18],100
same,"Plant response rating, Barnyardgrass",barnyardgrass [12],30
same,Pigweed plant response rating,pigweed [13]; [19],100
same,"Plant response rating, Pigweed",pigweed [13]; [20],100
same,Morningglory plant response rating (0 to 100 scale),morningglory [14]; 125 g ai/ha,10
same,Morningglory plant response rating,morningglory [14]; [18],70
same,"Crabgrass, Large plant response rating",large (Lg) crabgrass [15]; [19],70
same,"Plant response rating, Crabgrass, Large",large (Lg) crabgrass [15]; [20],90
same,"Plant response rating, Rice",rice,0
same,"Foxtail, Giant plant response rating",giant foxtail [16]; [19],70
same,"Plant response rating, Foxtail, Giant",giant foxtail [16]; [20],90
same,Corn plant response rating (0 to 100 scale),corn [17]; 125 g ai/ha,0
same,Corn plant response rating,corn [17]; [18],20
Clc1cnc(Oc2cc(Cl)ccc2-n2cc(Br)cn2)nc1 [Compound 51],"Plant response rating, Barnyardgrass",barnyardgrass [1]; [19],20
same,Barnyardgrass plant response rating,barnyardgrass [1]; [21],30
same,"Plant response rating, Crabgrass, Large",large (Lg) crabgrass [2]; [19],40
same,"Crabgrass, Large plant response rating",large (Lg) crabgrass [2]; [21],90
same,"Plant response rating, Corn",corn [3]; [19],0
same,"Plant response rating, Corn",corn [3]; [22],20
same,"Plant response rating, Morningglory",morningglory [4]; [19],10
same,"Plant response rating, Morningglory",morningglory [4]; [22],20
same,"Plant response rating, Wheat",wheat [5]; [19],0
same,"Plant response rating, Wheat",wheat [5]; [22],0
same,"Plant response rating, Velvetleaf",velvetleaf [6]; [19],0
same,Velvetleaf plant response rating,velvetleaf [6]; [21],0
same,"Plant response rating, Sedge, Umbrella","sedge, umbrella",65
same,"Plant response rating, Barnyardgrass",barnyardgrass [7]; [19],0
same,"Plant response rating, Barnyardgrass",barnyardgrass [7]; [22],10
same,"Plant response rating, Wheat",wheat [8]; [19],0
same,Wheat plant response rating,wheat [8]; [21],0
same,"Plant response rating, Ducksalad",Heteranthera limosa,40
same,"Plant response rating, Velvetleaf",velvetleaf [9]; [19],50
same,"Plant response rating, Velvetleaf",velvetleaf [9]; [22],60
same,"Plant response rating, Pigweed",pigweed [10]; [19],10
same,Pigweed plant response rating,pigweed [10]; [21],80
same,"Plant response rating, Foxtail, Giant",giant foxtail [11]; [19],20
same,"Foxtail, Giant plant response rating",giant foxtail [11]; [21],80
same,"Plant response rating, Barnyardgrass",barnyardgrass [12],0
same,"Plant response rating, Pigweed",pigweed [13]; [19],30
same,"Plant response rating, Pigweed",pigweed [13]; [22],70
same,"Plant response rating, Morningglory",morningglory [14]; [19],0
same,Morningglory plant response rating,morningglory [14]; [21],0
same,"Plant response rating, Crabgrass, Large",large (Lg) crabgrass [15]; [19],0
same,"Plant response rating, Crabgrass, Large",large (Lg) crabgrass [15]; [22],20
same,"Plant response rating, Rice",rice,0
same,"Plant response rating, Foxtail, Giant",giant foxtail [16]; [19],0
same,"Plant response rating, Foxtail, Giant",giant foxtail [16]; [22],10
same,"Plant response rating, Corn",corn [17]; [19],0
same,Corn plant response rating,corn [17]; [21],0
Clc1cnc(Oc2ccccc2-n2ccc(Br)n2)nc1 [Compound 21],"Plant response rating, Barnyardgrass",barnyardgrass [1]; [19],20
same,Barnyardgrass plant response rating,barnyardgrass [1]; [21],30
same,"Plant response rating, Crabgrass, Large",large (Lg) crabgrass [2]; [19],90
same,"Crabgrass, Large plant response rating",large (Lg) crabgrass [2]; [21],100
same,"Plant response rating, Corn",corn [3]; [19],0
same,"Plant response rating, Corn",corn [3]; [22],30
same,"Plant response rating, Morningglory",morningglory [4]; [19],40
same,"Plant response rating, Morningglory",morningglory [4]; [22],80
same,"Plant response rating, Wheat",wheat [5]; [19],0
same,"Plant response rating, Wheat",wheat [5]; [22],20
same,"Plant response rating, Velvetleaf",velvetleaf [6]; [19],0
same,Velvetleaf plant response rating,velvetleaf [6]; [21],20
same,"Plant response rating, Sedge, Umbrella","sedge, umbrella",70
same,"Plant response rating, Barnyardgrass",barnyardgrass [7]; [19],0
same,"Plant response rating, Barnyardgrass",barnyardgrass [7]; [22],40
same,"Plant response rating, Wheat",wheat [8]; [19],0
same,Wheat plant response rating,wheat [8]; [21],0
same,"Plant response rating, Ducksalad",Heteranthera limosa,40
same,"Plant response rating, Velvetleaf",velvetleaf [9]; [19],50
same,"Plant response rating, Velvetleaf",velvetleaf [9]; [22],80
same,"Plant response rating, Pigweed",pigweed [10]; [19],90
same,Pigweed plant response rating,pigweed [10]; [21],100
same,"Plant response rating, Foxtail, Giant",giant foxtail [11]; [19],70
same,"Foxtail, Giant plant response rating",giant foxtail [11]; [21],100
same,"Plant response rating, Barnyardgrass",barnyardgrass [12],25
same,"Plant response rating, Pigweed",pigweed [13]; [19],90
same,"Plant response rating, Pigweed",pigweed [13]; [22],100
same,"Plant response rating, Morningglory",morningglory [14]; [19],0
same,Morningglory plant response rating,morningglory [14]; [21],0
same,"Plant response rating, Crabgrass, Large",large (Lg) crabgrass [15]; [19],20
same,"Plant response rating, Crabgrass, Large",large (Lg) crabgrass [15]; [22],50
same,"Plant response rating, Rice",rice,15
same,"Plant response rating, Foxtail, Giant",giant foxtail [16]; [19],30
same,"Plant response rating, Foxtail, Giant",giant foxtail [16]; [22],90
same,"Plant response rating, Corn",corn [17]; [19],0
same,Corn plant response rating,corn [17]; [21],0
O=[N+]([O-])c1cccc(Oc2ncc(Cl)cn2)c1-n1cc(Br)cn1 [Compound 63],"Plant response rating, Barnyardgrass",barnyardgrass [1]; [19],0
same,Barnyardgrass plant response rating,barnyardgrass [1]; [21],70
same,"Plant response rating, Crabgrass, Large",large (Lg) crabgrass [2]; [19],80
same,"Crabgrass, Large plant response rating",large (Lg) crabgrass [2]; [21],100
same,"Plant response rating, Corn",corn [3]; [19],0
same,"Plant response rating, Corn",corn [3]; [22],30
same,"Plant response rating, Morningglory",morningglory [4]; [19],30
same,"Plant response rating, Morningglory",morningglory [4]; [22],80
same,"Plant response rating, Wheat",wheat [5]; [19],0
same,"Plant response rating, Wheat",wheat [5]; [22],10
same,"Plant response rating, Velvetleaf",velvetleaf [6]; [19],0
same,Velvetleaf plant response rating,velvetleaf [6]; [21],20
same,"Plant response rating, Sedge, Umbrella","sedge, umbrella",0
same,"Plant response rating, Barnyardgrass",barnyardgrass [7]; [19],30
same,"Plant response rating, Barnyardgrass",barnyardgrass [7]; [22],70
same,"Plant response rating, Wheat",wheat [8]; [19],0
same,Wheat plant response rating,wheat [8]; [21],0
same,"Plant response rating, Ducksalad",Heteranthera limosa,0
same,"Plant response rating, Velvetleaf",velvetleaf [9]; [19],60
same,"Plant response rating, Velvetleaf",velvetleaf [9]; [22],100
same,"Plant response rating, Pigweed",pigweed [10]; [19],90
same,Pigweed plant response rating,pigweed [10]; [21],100
same,"Plant response rating, Foxtail, Giant",giant foxtail [11]; [19],20
same,"Foxtail, Giant plant response rating",giant foxtail [11]; [21],100
same,"Plant response rating, Barnyardgrass",barnyardgrass [12],0
same,"Plant response rating, Pigweed",pigweed [13]; [19],70
same,"Plant response rating, Pigweed",pigweed [13]; [22],100
same,"Plant response rating, Morningglory",morningglory [14]; [19],0
same,Morningglory plant response rating,morningglory [14]; [21],0
same,"Plant response rating, Crabgrass, Large",large (Lg) crabgrass [15]; [19],30
same,"Plant response rating, Crabgrass, Large",large (Lg) crabgrass [15]; [22],90
same,"Plant response rating, Rice",rice,0
same,"Plant response rating, Foxtail, Giant",giant foxtail [16]; [19],20
same,"Plant response rating, Foxtail, Giant",giant foxtail [16]; [22],80
same,"Plant response rating, Corn",corn [17]; [19],0
same,Corn plant response rating,corn [17]; [21],0
